Measured values from patent EP4129284B1, “SERTACONAZOL FOR PROVIDING A SPORISTATIC AND/OR SPORICIDAL EFFECT” (Dr. Pfleger Arzneimittel GmbH, priority 2021, dated 2023).

Tested on: full skin models
Type: cell-based, human
Details: for cell viability: human
Protocol: Additionally, the influence on the cell viability and the release of lactate dehydrogenase (LDH) was examined over the incubation time. Disruptions of the cell membranes can be measured by the release of the cytosolic enzyme LDH and be evaluated as a marker for cellular necrosis. As the biocompatibility of the material is determined by further cellular and molecular factors, the analysis of the cellular interleukin release allows the conclusion on e.g. pro-inflammatory effects of the substances, which would not be possible to be detected by sole cytotoxicity. Such interleukins are interleukins 1α, 6 or 8, which are involved in coordinating the cellular proliferation, cell migration and possible inflammatory processes. Such a method is described in, for example, Wiegand C, Hipler UC. Evaluation of biocompatibility and cytotoxicity using keratinocyte and fibroblast cultures. Skin Pharmacol Physiol 2009; 22:74-82; Wiegand C, Winter D, Hipler UC. Molecular-weight-dependent toxic effects of chitosans on the human keratinocyte cell line HaCaT. Skin Pharmacol Physiol. 2010;23(3):164-70.
The spore suspensions and the solutions of sertaconazol, ciclopiroxolamin and terbinafin were prepared as in Example 1, wherein the respective test concentrations were obtained by diluting these solutions in ultrapure water (WFI; Fresenius Kabi) instead of SGB (Merck). Full skin models were produced as previously described [Reddersen K, Wiegand C, Elsner P, Hipler UC. Three-dimensional human skin model infected with Staphylococcus aureus as a tool for evaluation of bioactivity and biocompatibility of antiseptics. Int J Antimicrob Agents. 2019; 54(3):283-291; Wiegand C, Fink S, Beier O, Horn K, Pfuch A, Schimanski A, Grünler B, Hipler UC, Elsner P. Dose- and Time-Dependent Cellular Effects of Cold Atmospheric Pressure Plasma Evaluated in 3D Skin Models. Skin Pharmacol Physiol. 2016;29(5):257-265].Particularly, normal human dermal fibroblasts (NHDF; Lot 1060702.1, Promocell) and normal human epidermal keratinocytes (NHEK; Lot 9100102, Promocell) were used. Fibroblasts were cultivated in Dulbecco's modified eagle medium (DMEM; Lot MC09049P, Amimed), with 2% foetal calf serum (Lot P160509; PAN), 5 ng/mL hFGF (Lot 0329586; novoprotein) and 5 µg/ml Insulin (Lot H07443P, AMIMED) at 37°C and a 5% CO2 atmosphere. Keratinocytes were cultivated in keratinocyte medium (KBM, Lot 446M063, Promocell) at 37°C and a 5% CO2 atmosphere. The cultivation was performed over 7 days in 75 cm^2 cell culture flasks (Greiner Bio-One). The cells were subsequently detached with Trypsin-EDTA (Lot 2091326; Gibco) and dissolved in the respective medium. For producing the dermis equivalent, fibroblasts were cultivated in 12-well inserts (Greiner bio-one) with DMEM (Lot MC09049P, Amimed) + 10% foetal calf serum (Lot P160509, PAN) + 1% Gentamycin (Lot 2027100, Gibco) + 150 µg/ml ascorbic acid (Lot BCBS1081V, Sigma) for 3 weeks at […] and 5 % CO2. The medium was changed all 2-3 days. Before seeding the keratinocytes for producing the […], the medium surrounding the insert was completely removed and the dermis upper layer was coated with fibronectin (50 µg/mL; Lot 435P078, Promocell). After 30 min of incubation of the dermis equivalent with fibronectin, the seeding of the keratinocytes was performed with 2 × 10^5 cells / insert in KBM (Lot 446M063, Promocell) + 5% FKS (Lot P160509, PAN) + 1% Gentamycin (Lot 2027100, Gibco). Subsequently, the skin models were incubated for 45 min in the incubator before the models were flooded with KBM + 5% FKS + 1% Gentamycin. The skin models were cultivated for 7 days by submersion in the medium with decreasing foetal calf serum concentration (5 %, 2 %, 0 %). The medium was changed all 2-3 days. After the cultivation by submersion, the skin models were further cultivated for 12 days at the air-medium interface (airlift cultivation). […]

secretion of LDH	Compound	effect on the cell viability of the full skin models	cell viability
no significant secretion	Cc1cc(C2CCCCC2)n(O)c(=O)c1 [Ciclopiroxolamin, ciclopiroxolamin]	did not have a negative effect	≥ 70%
no significant secretion	Clc1ccc(C(Cn2ccnc2)OCc2csc3c(Cl)cccc23)c(Cl)c1 (stereo not drawn) [Sertaconazol, sertaconazol]	did not have a negative effect	≥ 70%
no significant secretion	CN(C/C=C/C#CC(C)(C)C)Cc1cccc2ccccc12 [Terbinafin, terbinafin]	did not have a negative effect	≥ 70%
